Assay results as given in ChEMBL document CHEMBL5113530, “Butyrylation Meets Adipogenesis-Probed by a p300-Catalyzed Acylation-Specific Small Molecule Inhibitor: Implication in Anti-obesity Therapy” (J Med Chem, 2022).
Activity calls are given as the source filed them. The calls are words filed in the database; no cut-off is given here.

Tests used:
[1] = biological target: Histone acetyltransferase p300 (Homo sapiens) (UniProt Q09472); assay: Inhibition of recombinant full length His-tagged EP300 catalyzed butyrylation (unknown origin) expressed in baculovirus infected Sf21insect cells using Histone H3 as substrate at 25 uM preincubated with compound for 10 mins followed by butyryl-CoA addition and measured after 10 mins by Western blot analysis; conditions: Sf21, time 20.0 min
Histone acetyltransferase p300 (Homo sapiens), sequence (Q09472 whole entry, the tested form may be a part): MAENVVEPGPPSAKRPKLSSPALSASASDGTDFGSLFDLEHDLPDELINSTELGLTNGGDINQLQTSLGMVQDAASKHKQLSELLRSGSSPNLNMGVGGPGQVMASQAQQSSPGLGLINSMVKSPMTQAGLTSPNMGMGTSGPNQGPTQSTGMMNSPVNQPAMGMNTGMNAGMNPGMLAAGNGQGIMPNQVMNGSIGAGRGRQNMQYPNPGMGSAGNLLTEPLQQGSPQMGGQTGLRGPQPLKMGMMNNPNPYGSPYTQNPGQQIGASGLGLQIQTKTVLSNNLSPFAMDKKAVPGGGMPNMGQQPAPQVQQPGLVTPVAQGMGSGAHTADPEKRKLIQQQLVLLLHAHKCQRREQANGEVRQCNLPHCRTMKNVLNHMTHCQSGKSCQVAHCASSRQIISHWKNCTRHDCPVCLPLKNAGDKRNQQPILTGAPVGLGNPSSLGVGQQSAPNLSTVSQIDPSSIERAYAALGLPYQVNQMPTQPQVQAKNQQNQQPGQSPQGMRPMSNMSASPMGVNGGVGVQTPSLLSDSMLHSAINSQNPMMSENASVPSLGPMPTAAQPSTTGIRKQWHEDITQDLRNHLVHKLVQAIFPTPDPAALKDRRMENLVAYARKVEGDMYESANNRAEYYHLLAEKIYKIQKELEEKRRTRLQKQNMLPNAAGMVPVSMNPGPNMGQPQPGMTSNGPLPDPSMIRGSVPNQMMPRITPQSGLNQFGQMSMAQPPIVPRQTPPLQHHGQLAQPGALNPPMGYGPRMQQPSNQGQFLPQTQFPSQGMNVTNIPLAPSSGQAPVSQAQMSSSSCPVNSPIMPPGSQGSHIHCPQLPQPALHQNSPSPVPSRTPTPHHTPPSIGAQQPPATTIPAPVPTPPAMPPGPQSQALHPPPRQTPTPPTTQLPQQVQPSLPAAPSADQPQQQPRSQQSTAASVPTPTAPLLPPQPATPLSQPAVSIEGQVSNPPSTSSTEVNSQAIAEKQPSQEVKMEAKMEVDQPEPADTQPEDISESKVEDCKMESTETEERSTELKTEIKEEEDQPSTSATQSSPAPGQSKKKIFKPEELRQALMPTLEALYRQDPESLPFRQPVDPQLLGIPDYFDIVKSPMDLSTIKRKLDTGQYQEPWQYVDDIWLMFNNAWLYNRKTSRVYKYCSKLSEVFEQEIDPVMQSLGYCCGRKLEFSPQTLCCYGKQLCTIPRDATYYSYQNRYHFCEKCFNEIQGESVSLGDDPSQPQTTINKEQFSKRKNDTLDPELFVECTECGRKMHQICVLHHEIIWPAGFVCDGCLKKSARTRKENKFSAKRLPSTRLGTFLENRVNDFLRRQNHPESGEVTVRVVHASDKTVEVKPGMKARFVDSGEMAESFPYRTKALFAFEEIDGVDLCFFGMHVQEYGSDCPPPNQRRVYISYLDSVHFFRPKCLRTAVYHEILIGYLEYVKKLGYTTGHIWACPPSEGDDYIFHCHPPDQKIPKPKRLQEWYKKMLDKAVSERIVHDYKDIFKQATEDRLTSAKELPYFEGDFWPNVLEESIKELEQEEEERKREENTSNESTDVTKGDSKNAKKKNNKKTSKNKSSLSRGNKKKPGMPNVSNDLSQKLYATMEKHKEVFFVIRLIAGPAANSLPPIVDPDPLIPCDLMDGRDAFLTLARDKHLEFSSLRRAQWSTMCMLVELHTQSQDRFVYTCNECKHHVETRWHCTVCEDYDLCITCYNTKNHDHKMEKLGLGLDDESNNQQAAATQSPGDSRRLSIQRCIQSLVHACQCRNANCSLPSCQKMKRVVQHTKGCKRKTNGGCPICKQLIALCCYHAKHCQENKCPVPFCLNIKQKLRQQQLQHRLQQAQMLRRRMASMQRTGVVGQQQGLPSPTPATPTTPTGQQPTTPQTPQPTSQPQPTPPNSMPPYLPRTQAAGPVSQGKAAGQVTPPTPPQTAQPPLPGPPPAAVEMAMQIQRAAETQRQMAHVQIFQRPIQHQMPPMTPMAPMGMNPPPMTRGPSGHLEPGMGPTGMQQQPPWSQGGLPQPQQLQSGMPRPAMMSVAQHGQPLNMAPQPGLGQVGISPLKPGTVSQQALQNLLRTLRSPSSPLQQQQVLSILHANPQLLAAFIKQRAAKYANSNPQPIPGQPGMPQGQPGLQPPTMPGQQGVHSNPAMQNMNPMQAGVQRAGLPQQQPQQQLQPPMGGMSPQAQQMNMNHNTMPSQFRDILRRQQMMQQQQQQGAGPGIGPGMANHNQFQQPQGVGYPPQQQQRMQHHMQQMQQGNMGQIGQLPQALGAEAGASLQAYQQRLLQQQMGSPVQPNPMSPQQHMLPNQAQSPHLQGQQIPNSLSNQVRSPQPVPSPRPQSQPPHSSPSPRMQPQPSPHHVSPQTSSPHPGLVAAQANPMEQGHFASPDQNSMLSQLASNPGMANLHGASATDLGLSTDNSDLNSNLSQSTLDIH

[2] = tested on: Histone acetyltransferase p300 (Homo sapiens), Q09472 [C1438A]; assay: Inhibition of […] His-tagged EP300 C1438A mutant catalytic domain catalyzed acetylation (unknown origin) expressed in Escherichia coli BL21 (DE3) using Histone H3 as substrate at 25 uM preincubated with compound for 10 mins followed by acetyl-CoA addition and measured after 10 mins by Western blot analysis; conditions: time 20.0 min
Histone acetyltransferase p300 (Homo sapiens), Q09472 [C1438A], sequence (Q09472 whole entry C1438A, the tested form may be a part): as the sequence (Q09472 whole entry, the tested form may be a part) above, with C1438A counted along it

3T3-L1 [3] = assay: Anti-adipogenic activity against mouse 3T3-L1 cells assessed as downregulation of CEBPA mRNA expression at 25 uM measured after 7 days by qRT-PCR analysis; assay type: functional, cell-based; conditions: time 7.0 day
3T3-L1 [4] = assay: Anti-adipogenic activity against mouse 3T3-L1 cells assessed as downregulation of LEP mRNA expression at 25 uM measured after 7 days by qRT-PCR analysis; assay type: functional, cell-based; conditions: time 7.0 day
3T3-L1 [5] = assay: Anti-adipogenic activity against mouse 3T3-L1 cells assessed as downregulation of CEBPD mRNA expression at 25 uM measured after 7 days by qRT-PCR analysis; assay type: functional, cell-based; conditions: time 7.0 day
3T3-L1 [6] = assay: Inhibition of H3K5 butyrylation in mouse 3T3-L1 cells by Immunoblotting analysis; assay type: functional, cell-based
Mus musculus [7] = assay: Anti-obesity activity in C57BL6/J mouse model of high fat diet-induced obesity assessed as reduction in hepatic steatosis at 50 mg/kg by hematoxylin and eosin staining based assay; assay type: functional, organism-based
Mus musculus [8] = assay: Anti-obesity activity in C57BL6/J mouse model of high fat diet-induced obesity assessed as reduction in H4K5 butyrylation level in epididymal fat pad at 50 mg/kg by Immunoblotting analysis; assay type: functional, organism-based
Mus musculus [9] = assay: Anti-obesity activity in db/db mouse assessed as inhibition of Adipoq-gene expression at 50 mg/kg, po qd administered for 30 days by qRT-PCR analysis; assay type: functional, organism-based; conditions: time 30.0 day
[10] = Mutagenicity in Salmonella typhimurium TA97a assessed as number of revertants measured per plate at 10 to 1000 incubated for 48 hrs in presence of rat liver S9 fraction by plate incorporation assay; assay type: toxicity; conditions: salmonella enterica subsp. enterica serovar typhimurium, s9, 48 h, dose 10-1000 µg
[11] = Mutagenicity in Salmonella typhimurium TA102 assessed as number of revertants measured per plate at 10 to 1000 incubated for 48 hrs in presence of rat liver S9 fraction by plate incorporation assay; assay type: toxicity; conditions: salmonella enterica subsp. enterica serovar typhimurium, s9, 48 h, dose 10-1000 µg
[12] = Mutagenicity in Salmonella typhimurium TA102 assessed as number of revertants measured per plate at 10 to 1000 incubated for 48 hrs in absence of rat liver S9 fraction by plate incorporation assay; assay type: toxicity; conditions: salmonella enterica subsp. enterica serovar typhimurium, s9, 48 h, dose 10-1000 µg
[13] = Toxicity in male Sprague-Dawley rat assessed as effect on body weight at 500 mg/kg, po administered as single dose measured on day 1 (reference value: 174.75 +/- 7.61 g); assay type: organism-based; conditions: in vivo, 24 h, time 1 day
[14] = Toxicity in male Sprague-Dawley rat assessed as effect on body weight at 1000 mg/kg, po administered as single dose measured on day 7 (reference value: 217.38 +/- 11.38 g); assay type: organism-based; conditions: in vivo, 168 h, time 7 day
[15] = Toxicity in male Sprague-Dawley rat assessed as effect on body weight at 250 mg/kg, po administered as single dose measured on day 14 (Rvb =231.13 +/- 18.38 g); assay type: organism-based; conditions: in vivo, 336 h, time 14 day
[16] = Toxicity in male Sprague-Dawley rat assessed as effect on body weight at 500 mg/kg, po administered as single dose measured on day 14 (Rvb =231.13 +/- 18.38 g); assay type: organism-based; conditions: in vivo, 336 h, time 14 day
[17] = Toxicity in female Sprague-Dawley rat assessed as effect on body weight at 250 mg/kg, po administered as single dose measured on day 7 (Rvb =169.81 +/- 6.57 g); assay type: organism-based; conditions: in vivo, 168 h, time 7 day
[18] = Toxicity in female Sprague-Dawley rat assessed as effect on body weight at 1000 mg/kg, po administered as single dose measured on day 14 (Rvb =171.5 +/- 6.65 g); assay type: organism-based; conditions: in vivo, 336 h, time 14 day
[19] = Toxicity in male Sprague-Dawley rat assessed as average food intake at 500 mg/kg, po administered as single dose measured on day 7 (Rvb =20.24 g/day); assay type: organism-based; conditions: in vivo, 168 h, time 7 day
[20] = Toxicity in male Sprague-Dawley rat assessed as average food intake at 250 mg/kg, po administered as single dose measured on day 14 (Rvb =21.24 g/day); assay type: organism-based; conditions: in vivo, 336 h, time 14 day
[21] = Toxicity in male Sprague-Dawley rat assessed as average food intake at 1000 mg/kg, po administered as single dose measured on day 14 (Rvb =21.24 g/day); assay type: organism-based; conditions: in vivo, 336 h, time 14 day
[22] = Toxicity in female Sprague-Dawley rat assessed as average food intake at 250 mg/kg, po administered as single dose measured on day 7 (Rvb =15.65 g/day); assay type: organism-based; conditions: in vivo, 168 h, time 7 day
[23] = Toxicity in female Sprague-Dawley rat assessed as average food intake at 250 mg/kg, po administered as single dose measured on day 14 (Rvb =15.95 g/day); assay type: organism-based; conditions: in vivo, 336 h, time 14 day
[24] = Toxicity in female Sprague-Dawley rat assessed as average food intake at 500 mg/kg, po administered as single dose measured on day 14 (Rvb =15.95 g/day); assay type: organism-based; conditions: in vivo, 336 h, time 14 day
[25] = Toxicity in male Sprague-Dawley rat assessed as average water intake measured per day at 250 mg/kg, po administered as single dose measured on day 1 (Rvb =32 ml/day); assay type: organism-based; conditions: in vivo, 24 h, time 1 day
[26] = Toxicity in male Sprague-Dawley rat assessed as average water intake measured per day at 500 mg/kg, po administered as single dose measured on day 7 (Rvb =30 ml/day); assay type: organism-based; conditions: in vivo, 168 h, time 7 day
[27] = Toxicity in male Sprague-Dawley rat assessed as average water intake measured per day at 500 mg/kg, po administered as single dose measured on day 14 (Rvb =34 ml/day); assay type: organism-based; conditions: in vivo, 336 h, time 14 day
[28] = Toxicity in female Sprague-Dawley rat assessed as average water intake measured per day at 250 mg/kg, po administered as single dose measured on day 7 (Rvb =21 ml/day); assay type: organism-based; conditions: in vivo, 168 h, time 7 day
[29] = Toxicity in female Sprague-Dawley rat assessed as average water intake measured per day at 500 mg/kg, po administered as single dose measured on day 14 (Rvb =26 ml/day); assay type: organism-based; conditions: in vivo, 336 h, time 14 day
[30] = Toxicity in female Sprague-Dawley rat assessed as average water intake measured per day at 1000 mg/kg, po administered as single dose measured on day 14 (Rvb =26 ml/day); assay type: organism-based; conditions: in vivo, 336 h, time 14 day

In the case of `COc1ccc(C(=O)C2=C3OC(C)(C)[C@@H](CC=C(C)C)C[C@@]34C[C@@H](CC=C(C)C)C(C)(C)[C@](CC=C(C)C)(C2=O)C4=O)cc1OC`, the inhibition [1] was “Active”, the inhibition [2] was “Active” and the Activity (3T3-L1 [3]) was “Active”. The Activity (3T3-L1 [4]) was “Active”, the Activity (3T3-L1 [5]) was “Active” and the inhibition (3T3-L1 [6]) was “Active”. The Activity (Mus musculus [7]) was “Active”, the Activity (Mus musculus [8]) was “Active” and the Activity (Mus musculus [9]) was “Active”. For the same compound, the Activity [10] was “Non-Toxic”, the Activity [11] was “Non-Toxic” and the Activity [12] was “Non-Toxic”. For the same compound, the Activity [13] was 176.3 g, the Activity [14] was 217.65 g and the Activity [15] was 244.21 g. It also gave an Activity [16] of 243.14 g, an Activity [17] of 174.54 g and an Activity [18] of 179.52 g. It also gave an Activity [19] of 21.14 g/day, an Activity [20] of 22.62 g/day and an Activity [21] of 19.95 g/day. The Activity [22] was 16.32 g/day, the Activity [23] was 16.65 g/day and the Activity [24] was 17.09 g/day. It also gave an Activity [25] of 32 mL, an Activity [26] of 33 mL and an Activity [27] of 40 mL. It also gave an Activity [28] of 21 mL, an Activity [29] of 26 mL and an Activity [30] of 32 mL.
